Measured values published in patent US20080234233A1, “MEDICAMENT FOR TREATMENT OF NEURODEGENERATIVE DISEASES” (INSTITUTE OF MEDICINAL MOLECULAR DESIGN INC., priority 2002, published 2008).

Columns and labels:
AP-1 activation = test: Inhibition against AP-1 activation by TNF α stimulation, luciferase reporter assay in HeLa; format: cell-based, human; conditions: Homo sapiens, TNF-α 40 ng/ml, 4 hours, read-out: Inhibitory rate against AP-1 activation(%)
Experimental: Measurement of Inhibition Against AP-1 Activation by TNF α Stimulation
Using a transfection reagent(Effectene; QIAGEN), the human uterine cancer cell strain HeLa was transfected with a plasmid(pAP-1-Luc Reporter Plasmid: […]) integrated with an oligonucleotide having seven tandem copies of AP-1 binding sequences(TGACTAA) on an upstream region of firefly luciferase gene(Luc) according to the QIAGEN's protocol, and the cells were incubated for 6 to 24 hours. After addition of TNF-α (40 ng/ml) in the presence or absence of a test compound, the cells were incubated for 4 hours, and intracellular luciferase activity was measured by using PicaGene LT(TOYO INK MFG Co., Ltd.) and a chemical luminescence measurement apparatus([…]luor Plus; TECAN). The inhibitory ratio was measured as a ratio relative to the value of the luciferase activity in the absence of the test compound.

NF-κ B activation = test: Inhibitory activity of NF-κB activation, luciferase reporter assay under TNF-α stimulation in HepG2; format: cell-based, human; conditions: HepG2, TNF-α 40 ng/ml, 4 hours; for inhibition at 1 µg/mL / inhibition at 10 µg/mL: Homo sapiens, read-out: Inhibitory rate against NF-κB activation (%)
Summary of the method: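 HepG2 cells transiently transfected with luciferase reporter carrying five tandem NF-κB binding sites, then stimulated with TNF-α (40 ng/ml) ± compound for 4 hours. Luminescent luciferase activity measured; inhibition expressed relative to activity without compound.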

Structure (SMILES)	inhibition at 1 µg/mL (NF-κ B activation; Drug concentration at 1 μg/mL) [%]	Inhibitory rate against NF-κB activation (%) (NF-κ B activation; Drug concentration at 1 μg/mL)	Inhibitory rate against NF-κB activation (%) (NF-κ B activation; Drug concentration at 10 μg/mL)	also measured
O=C(Nc1nc(-c2ccccc2)c(C(=O)O)s1)c1cc(Br)ccc1O [compound 217, 2-(5-bromo-2-hydroxybenzoyl)amino-4-phenylthiazole-5-carboxylic acid]				inhibition at 1 µg/mL (AP-1 activation; Drug concentration at 1 μg/mL): 21.7%; inhibition at 10 µg/mL (AP-1 activation; Drug concentration at 10 μg/mL): 55.3%
CCOC(=O)c1sc(NC(=O)c2cc(Br)ccc2O)nc1-c1c(F)c(F)c(F)c(F)c1F [compound 219, Ethyl 2-(5-bromo-2-hydroxybenzoyl)amino-4-(pentafluorophenyl)thiazole-5-carboxylate]	82.2			inhibition at 10 µg/mL (NF-κ B activation; Drug concentration at 10 μg/mL): 96%
CNC(=O)c1sc(NC(=O)c2cc(Br)ccc2O)nc1-c1ccccc1 [compound 220]		50.8	58.6	
CCNC(=O)c1sc(NC(=O)c2cc(Br)ccc2O)nc1-c1ccccc1 [compound 221]		51.9	84.0	
CC(C)NC(=O)c1sc(NC(=O)c2cc(Br)ccc2O)nc1-c1ccccc1 [compound 222]		49.6	91.3	
O=C(Nc1nc(-c2ccccc2)c(C(=O)NCCc2ccccc2)s1)c1cc(Br)ccc1O [compound 223]		33.3	60.4	
CCOC(=O)c1sc(NC(=O)c2cc(Br)ccc2O)nc1C(F)(F)F [compound 224]		87.6	96.5	
CCOC(=O)c1sc(NC(=O)c2cc(-c3ccc(F)cc3)ccc2O)nc1-c1ccccc1 [compound 226]		45.0	85.8	
CCOC(=O)c1sc(NC(=O)c2cc(-c3ccc(F)cc3F)ccc2O)nc1-c1ccccc1 [compound 227]		31.8	90.3	
CCOC(=O)c1sc(NC(=O)c2cc(-c3ccc(C(F)(F)F)cc3)ccc2O)nc1-c1ccccc1 [compound 228, 2-{[4-Hydroxy-4′-(trifluoromethyl)biphenyl]-3-carbonyl}amino-4-phenylthiazole-5-carboxylic acid ethyl ester]			90.0	
CCOC(=O)c1sc(NC(=O)c2cc(-n3cccc3)ccc2O)nc1-c1ccccc1 [compound 229]		74.0	90.1	
CCOC(=O)c1sc(NC(=O)c2cc(-c3cccs3)ccc2O)nc1-c1ccccc1 [compound 230, 2-[2-Hydroxy-5-(2-thienyl)benzoyl]amino-4-phenylthiazole-5-carboxylic acid ethyl ester]	40.8			inhibition at 10 µg/mL (NF-κ B activation; Drug concentration at 10 μg/mL): 84.8%
O=C(Nc1nc(-c2cc(C(F)(F)F)cc(C(F)(F)F)c2)cs1)c1cc(Cl)ccc1O [compound 231, 5-Chloro-2-hydroxy-N-{4-[3,5-bis(trifluoromethyl)phenyl]thiazol-2-yl}benzamide]	95.9			inhibition at 10 µg/mL (NF-κ B activation; Drug concentration at 10 μg/mL): 94.5%
CCOC(=O)c1c(NC(=O)c2cc(Cl)ccc2O)sc2c1CCCC2 [compound 232]		88.2	85.4	
O=C(Nc1cc(-c2ccccc2)[nH]n1)c1cc(Br)ccc1O [compound 233]		26.6	84.7	
CCc1nc(NC(=O)c2cc(Br)ccc2O)oc1CC [compound 234, 5-Bromo-N-(4,5-diethyloxazol-2-yl)-2-hydroxybenzamide]	29.1			inhibition at 10 µg/mL (NF-κ B activation; Drug concentration at 10 μg/mL): 63.1%
O=C(Nc1nc(-c2ccccc2)c(-c2ccccc2)o1)c1cc(Br)ccc1O [compound 235]			81.8	
O=C(Nc1nc(-c2ccco2)c(-c2ccco2)o1)c1cc(Br)ccc1O [compound 236, 5-Bromo-N-[4,5-bis(furan-2-yl)oxazol-2-yl]-2-hydroxybenzamide]	21.4			inhibition at 10 µg/mL (NF-κ B activation; Drug concentration at 10 μg/mL): 56%
O=C(Nc1nnc(C(F)(F)F)s1)c1ccccc1O [compound 237, 2-Hydroxy-N-(5-trifluoromethyl-1,3,4-thiadiazol-2-yl)benzamide]				inhibition at 10 µg/mL (NF-κ B activation; Drug concentration at 10 μg/mL): 81.9%
O=C(Nc1nnc(C(F)(F)F)s1)c1cc(Br)ccc1O [compound 238]		26.1	90.3	
O=C(Nc1ccc(Cl)nc1)c1cc(Cl)ccc1O [compound 240]		14.3	92.3	
COc1cc(Cl)nc(NC(=O)c2cc(Cl)ccc2O)n1 [compound 241]		25.5	78.9	

Structure (SMILES)	inhibition at 1 µg/mL (NF-κ B activation; Drug concentration at 1 μg/mL) [%]	Inhibitory rate against NF-κB activation (%) (NF-κ B activation; Drug concentration at 1 μg/mL)	Inhibitory rate against NF-κB activation (%) (NF-κ B activation; Drug concentration at 10 μg/mL)	also measured
O=C(Nc1cnc2ccccc2c1)c1cc(Cl)ccc1O [compound 242]			85.7	
O=C(Nc1cccc(Br)n1)c1cc(Cl)ccc1O [compound 243]		84.2	95.1	
O=C(Nc1cc(C(F)(F)F)cc(C(F)(F)F)c1)c1cc(S(=O)(=O)Nc2cc(C(F)(F)F)cc(C(F)(F)F)c2)ccc1O [compound 247]			>99.9	
O=C(Nc1cc(C(F)(F)F)cc(C(F)(F)F)c1)c1cccc(-c2ccccc2)c1O [compound 249, N-[3,5-bis(trifluoromethyl)phenyl]-2-hydroxy-3-phenylbenzamide]	86.6			inhibition at 10 µg/mL (NF-κ B activation; Drug concentration at 10 μg/mL): 90.7%
O=C(Nc1cc(C(F)(F)F)cc(C(F)(F)F)c1)c1ccc(F)cc1O [compound 250]		94.2	95.4	
N#Cc1ccc(Oc2ccc(C(F)(F)F)cc2NC(=O)c2cc(Cl)ccc2O)cc1 [compound 252]		93.9	96.3	
COc1ccc(Oc2ccc(C(F)(F)F)cc2NC(=O)c2cc(Cl)ccc2O)cc1 [compound 253]		96.3	99.5	
O=C(Nc1nc(-c2ccc(Cl)cc2Cl)cs1)c1cc(Cl)ccc1O [compound 255, 5-Chloro-2-hydroxy-N-[4-(2,4-dichlorophenyl)thiazol-2-yl]benzamide]	> 99.9			
CC(C)c1cccc(C(=O)Nc2cc(C(F)(F)F)cc(C(F)(F)F)c2)c1O [compound 256, N-[3,5-bis(trifluoromethyl)phenyl]-2-hydroxy-3-isopropylbenzamide]	92.1			
CC(C)c1cc(Br)cc(C(=O)Nc2cc(C(F)(F)F)cc(C(F)(F)F)c2)c1O [compound 257]		>99.9		
Cc1cc(Br)cc(C(=O)Nc2cc(C(F)(F)F)cc(C(F)(F)F)c2)c1O [compound 258]		>99.9		
O=C(Nc1cc(C(F)(F)F)cc(C(F)(F)F)c1)c1cc(Br)cc(-c2ccccc2)c1O [compound 259]		>99.9		
O=C(Nc1nc(-c2ccc(Cl)c(Cl)c2)cs1)c1cc(Cl)ccc1O [compound 260, 5-Chloro-2-hydroxy-N-[4-(3,4-dichlorophenyl)thiazol-2-yl]benzamide]	> 99.9			
O=C(Nc1nc(-c2ccc(C(F)(F)F)cc2)cs1)c1cc(Cl)ccc1O [compound 261, 5-Chloro-2-hydroxy-N-{4-[4-(trifluoromethyl)phenyl]thiazol-2-yl}benzamide]	> 99.9			
O=C(Nc1cc(C(F)(F)F)cc(C(F)(F)F)c1)c1ccc(-c2ccccc2)cc1O [compound 262, N-[3,5-Bis(trifluoromethyl)phenyl]-2-hydroxy-4-phenylbenzamide]	> 99.9			
O=C(Nc1nc(-c2cc(F)ccc2F)cs1)c1cc(Cl)ccc1O [compound 263, 5-Chloro-2-hydroxy-N-[4-(2,5-difluorophenyl)thiazol-2-yl]benzamide]	> 99.9			
COc1ccc(-c2csc(NC(=O)c3cc(Cl)ccc3O)n2)cc1 [compound 264, 5-Chloro-2-hydroxy-N-[4-(4-methoxyphenyl)thiazol-2-yl]benzamide]	> 99.9			
O=C(Nc1nc(-c2cccc(C(F)(F)F)c2)cs1)c1cc(Cl)ccc1O [compound 265, 5-Chloro-2-hydroxy-N-{4-[3-(trifluoromethyl)phenyl]thiazol-2-yl}benzamide]	> 99.9			
O=C(Nc1nc(-c2c(F)c(F)c(F)c(F)c2F)cs1)c1cc(Cl)ccc1O [compound 266, 5-Chloro-2-hydroxy-N-[4-(2,3,4,5,6-pentafluorophenyl)thiazol-2-yl]benzamide]	> 99.9			
Cc1ccc(C(=O)c2ccccc2)c(NC(=O)c2cc(Cl)ccc2O)c1 [compound 267]		28.6		
O=C(Nc1cc(C(F)(F)F)ccc1C(F)(F)F)c1cc(Br)ccc1O [compound 268]		87.1	98.4	
